Measurements: patent US9650334B2 (AbbVie Deutschland GmbH & Co. KG, priority 2013, dated 2017)

What follows are compounds tested against T1, human GlyT1c transporter (Homo sapiens, UniProt P48067) (assay: Radioligand binding assays using recombinant CHO cell membranes expressing human GlyT1). Settings: Ki, radioligand binding to human GlyT1c transporter-expressing CHO cell membranes.
T1 sequence (P48067 1-706): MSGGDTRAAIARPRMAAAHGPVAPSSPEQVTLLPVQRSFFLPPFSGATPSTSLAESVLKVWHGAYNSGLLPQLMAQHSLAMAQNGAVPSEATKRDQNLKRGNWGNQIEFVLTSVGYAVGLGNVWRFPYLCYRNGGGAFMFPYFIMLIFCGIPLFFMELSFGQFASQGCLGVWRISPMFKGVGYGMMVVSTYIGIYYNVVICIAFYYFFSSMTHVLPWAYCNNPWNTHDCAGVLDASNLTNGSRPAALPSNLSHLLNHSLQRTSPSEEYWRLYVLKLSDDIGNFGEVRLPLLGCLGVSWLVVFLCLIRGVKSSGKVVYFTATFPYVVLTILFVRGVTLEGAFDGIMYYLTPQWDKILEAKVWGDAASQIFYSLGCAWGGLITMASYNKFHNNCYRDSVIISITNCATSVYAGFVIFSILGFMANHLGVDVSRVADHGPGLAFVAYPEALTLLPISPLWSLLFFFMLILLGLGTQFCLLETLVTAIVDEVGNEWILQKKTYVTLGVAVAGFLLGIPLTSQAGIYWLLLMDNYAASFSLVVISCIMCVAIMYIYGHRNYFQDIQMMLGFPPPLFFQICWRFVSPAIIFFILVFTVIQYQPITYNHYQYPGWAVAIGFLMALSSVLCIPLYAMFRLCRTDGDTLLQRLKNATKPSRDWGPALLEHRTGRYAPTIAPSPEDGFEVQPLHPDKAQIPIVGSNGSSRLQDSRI
Compound `Cn1cnc(S(=O)(=O)N2CC3CCCN(C(=O)c4ccc(C(F)(F)F)cc4Cl)C3C2)c1` (stereo not drawn) [Example 880, [2-chloro-4-(trifluoromethyl)phenyl]{6-[(1-methyl-1H-imidazol-4-yl)sulfonyl]octahydro-1H-pyrrolo[3,4-b]pyridin-1-yl}methanone] has a Ki of at most 1000 nM.
`CCCCC1CN([C@H]2CN(S(=O)(=O)c3cn(C)cn3)C[C@@H]2c2ccc(F)cc2)C(=O)O1` (stereo partly drawn) [Example 863, 5-butyl-3-{(3R,4S)-4-(4-fluorophenyl)-1-[(1-methyl-1H-imidazol-4-yl)sulfonyl]pyrrolidin-3-yl}-1,3-oxazolidin-2-one] was tested, and the Ki was at most 1000 nM.
`CN1CCCCC1C1CN(S(=O)(=O)c2cn(C)cn2)CC1NC1CCc2ccccc21` (stereo not drawn) [Example 893, N-(2,3-dihydro-1H-inden-1-yl)-1-[(1-methyl-1H-imidazol-4-yl)sulfonyl]-4-(1-methylpiperidin-2-yl)pyrrolidin-3-amine] gave a Ki of at most 100 nM.
With `CCCCCCN[C@H]1CN(S(=O)(=O)c2cn(C)cn2)C[C@@H]1C1OCCCO1` [Example 910, (3R,4S)-4-(1,3-dioxan-2-yl)-N-hexyl-1-[(1-methyl-1H-imidazol-4-yl)sulfonyl]pyrrolidin-3-amine] the Ki was at most 100 nM.
Work on `CCCCCCN1CCCC2CN(S(=O)(=O)c3cn(C)cn3)CC21` (stereo not drawn) [Example 872, 1-hexyl-6-[(1-methyl-1H-imidazol-4-yl)sulfonyl]octahydro-1H-pyrrolo[3,4-b]pyridine] yielded a Ki of over 10000 nM.
In the case of `Cn1cnc(S(=O)(=O)N2CC(C(=O)NCc3ccc(F)c(Cl)c3)C3(CCCCC3)C2)c1` (stereo not drawn) [Example 881, N-(3-chloro-4-fluorobenzyl)-2-[(1-methyl-1H-imidazol-4-yl)sulfonyl]-2-azaspiro[4.5]decane-4-carboxamide], the Ki is reported as at most 1000 nM.
`Cn1cnc(S(=O)(=O)N2CC(C(=O)NCc3ccc(F)c(F)c3)C3(CCCCC3)C2)c1` (stereo not drawn) [Example 882, N-(3,4-difluorobenzyl)-2-[(1-methyl-1H-imidazol-4-yl)sulfonyl]-2-azaspiro[4.5]decane-4-carboxamide] was tested, and the Ki was at most 1000 nM.
`Cn1cnc(S(=O)(=O)N2C[C@H](Nc3ccc(F)c(Cl)c3)[C@@H](C3OCCCO3)C2)c1` [Example 916, (3R,4S)-N-(3-chloro-4-fluorophenyl)-4-(1,3-dioxan-2-yl)-1-[(1-methyl-1H-imidazol-4-yl)sulfonyl]pyrrolidin-3-amine] gave a Ki of at most 100 nM.
In the case of `Cn1cnc(S(=O)(=O)N2C[C@H](NC3CCc4ccccc43)[C@@H](C3OCCCO3)C2)c1` (stereo partly drawn) [Example 903, (3R,4S)-N-(2,3-dihydro-1H-inden-1-yl)-4-(1,3-dioxan-2-yl)-1-[(1-methyl-1H-imidazol-4-yl)sulfonyl]pyrrolidin-3-amine], the Ki is reported as at most 10 nM.
`Cn1cnc(S(=O)(=O)N2C[C@@H](Nc3ccc(OC(F)(F)F)c(C#N)c3)[C@H](c3ccccc3)C2)c1` (racemic) [Example 102, 5-({trans-1-[(1-methyl-1H-imidazol-4-yl)sulfonyl]-4-phenylpyrrolidin-3-yl}amino)-2-(trifluoromethoxy)benzonitrile] gave a Ki of at most 1000 nM.
`C=C(C)C1CCC(C)C(N[C@H]2CN(S(=O)(=O)c3cn(C)cn3)C[C@@H]2c2ccc(F)cc2)C1` (stereo partly drawn) [Example 867, (3R,4S)-4-(4-fluorophenyl)-1-[(1-methyl-1H-imidazol-4-yl)sulfonyl]-N-[2-methyl-5-(prop-1-en-2-yl)cyclohexyl]pyrrolidin-3-amine] showed a Ki of at most 100 nM.
In the case of `Cc1cccc(CN[C@@H]2CN(S(=O)(=O)c3cn(C)cn3)C[C@H]2c2ccc(F)cc2)c1` (relative stereo) [Example 154, trans-4-(4-fluorophenyl)-N-(3-methylbenzyl)-1-[(1-methyl-1H-imidazol-4-yl)sulfonyl]pyrrolidin-3-amine], the Ki is reported as at most 100 nM.
`Cn1cnc(S(=O)(=O)N2C3CCC2C(c2ccc(F)cc2)C3Nc2ccc(F)c(C(F)(F)F)c2)c1` (stereo not drawn) [Example 878, 3-(4-fluorophenyl)-N-[4-fluoro-3-(trifluoromethyl)phenyl]-7-[(1-methyl-1H-imidazol-4-yl)sulfonyl]-7-azabicyclo[2.2.1]heptan-2-amine] was tested, and the Ki was at most 10000 nM.
With `Cn1cnc(S(=O)(=O)N2C[C@@H](c3ccccc3)[C@](C)(Nc3cc(C(F)(F)F)ccn3)C2)c1` (relative stereo) [Example 388, N-{Trans-3-methyl-1-[(1-methyl-1H-imidazol-4-yl)sulfonyl]-4-phenylpyrrolidin-3-yl}-4-(trifluoromethyl)pyridin-2-amine] the Ki was at most 100 nM.
For `Cn1cnc(S(=O)(=O)N2C[C@H](NCc3ccc(C(F)(F)F)cc3Cl)[C@@H](C3OCCCO3)C2)c1` [Example 904, (3R,4S)-N-[2-chloro-4-(trifluoromethyl)benzyl]-4-(1,3-dioxan-2-yl)-1-[(1-methyl-1H-imidazol-4-yl)sulfonyl]pyrrolidin-3-amine], the Ki was at most 10 nM.
With `Cn1cnc(S(=O)(=O)N2C[C@H](NCc3cccc(OC(F)(F)F)c3)[C@@H](C3OCCCO3)C2)c1` [Example 905, (3R,4S)-4-(1,3-dioxan-2-yl)-1-[(1-methyl-1H-imidazol-4-yl)sulfonyl]-N-[3-(trifluoromethoxy)benzyl]pyrrolidin-3-amine] the Ki was at most 1000 nM.
`Cn1cc(S(=O)(=O)N2CC(Cc3cccc(C(F)(F)F)c3)C(C3OCCCO3)C2)nn1` (stereo not drawn) [Example 919, 4-({3-(1,3-dioxan-2-yl)-4-[3-(trifluoromethyl)benzyl]pyrrolidin-1-yl}sulfonyl)-1-methyl-1H-1,2,3-triazole] showed a Ki of at most 10000 nM.
`Cn1cnc(S(=O)(=O)N2C[C@H](Nc3ccc(F)c(OC(F)(F)F)c3)[C@@H](C3OCCCO3)C2)c1` [Example 924, (3R,4S)-4-(1,3-dioxan-2-yl)-N-[4-fluoro-3-(trifluoromethoxy)phenyl]-1-[(1-methyl-1H-imidazol-4-yl)sulfonyl]pyrrolidin-3-amine] was tested, and the Ki was at most 10 nM.
`CCCCCN(C)[C@H]1CN(S(=O)(=O)c2cn(C)cn2)C[C@@H]1C1OCCCO1` [Example 907, (3R,4S)-4-(1,3-dioxan-2-yl)-N-methyl-1-[(1-methyl-1H-imidazol-4-yl)sulfonyl]-N-pentylpyrrolidin-3-amine] was tested, and the Ki was at most 1000 nM.
In the case of `Cn1cnc(S(=O)(=O)N2CC(COc3ccc(F)cc3)C(c3ccccn3)C2)c1` (stereo not drawn) [Example 886, 2-{4-[(4-fluorophenoxy)methyl]-1-[(1-methyl-1H-imidazol-4-yl)sulfonyl]pyrrolidin-3-yl}pyridine], the Ki is reported as at most 1000 nM.
For `Cn1cnc(S(=O)(=O)N2C[C@H](Nc3cccc(C(F)(F)F)c3)[C@@H](C3OCCCO3)C2)c1` [Example 915, (3R,4S)-4-(1,3-dioxan-2-yl)-1-[(1-methyl-1H-imidazol-4-yl)sulfonyl]-N-[3-(trifluoromethyl)phenyl]pyrrolidin-3-amine], the Ki was at most 10 nM.
Work on `CCCCCN(CCCCC)[C@H]1CN(S(=O)(=O)c2cn(C)cn2)C[C@@H]1C1OCCCO1` [Example 908, (3R,4S)-4-(1,3-dioxan-2-yl)-1-[(1-methyl-1H-imidazol-4-yl)sulfonyl]-N,N-dipentylpyrrolidin-3-amine] yielded a Ki of at most 10000 nM.
Work on `Cn1cnc(S(=O)(=O)N2C[C@H](Nc3cccc(OCC(F)(F)F)c3)[C@@H](C3OCCCO3)C2)c1` [Example 899, (3R,4S)-4-(1,3-dioxan-2-yl)-1-[(1-methyl-1H-imidazol-4-yl)sulfonyl]-N-[3-(2,2,2-trifluoroethoxy)phenyl]pyrrolidin-3-amine] yielded a Ki of at most 100 nM.
Compound `Cn1cnc(S(=O)(=O)N2CC3CCCN(C(=O)c4ccc(Cl)cc4Cl)C3C2)c1` (stereo not drawn) [Example 873, (2,4-dichlorophenyl){6-[(1-methyl-1H-imidazol-4-yl)sulfonyl]octahydro-1H-pyrrolo[3,4-b]pyridin-1-yl}methanone] has a Ki of at most 10000 nM.
Work on `Cc1cccc(N[C@H]2CN(S(=O)(=O)c3cn(C)cn3)C[C@@H]2C2OCCCO2)c1` [Example 917, (3R,4S)-4-(1,3-dioxan-2-yl)-1-[(1-methyl-1H-imidazol-4-yl)sulfonyl]-N-(3-methylphenyl)pyrrolidin-3-amine] yielded a Ki of at most 100 nM.
In the case of `Cn1cnc(S(=O)(=O)N2C[C@H](c3ccc(F)cc3)[C@@H](N3CCS(=O)(=O)CC3)C2)c1` [Example 864, 4-{(3R,4S)-4-(4-fluorophenyl)-1-[(1-methyl-1H-imidazol-4-yl)sulfonyl]pyrrolidin-3-yl}thiomorpholine 1,1-dioxide], the Ki is reported as at most 10000 nM.
With `Cc1cc(N[C@H]2CN(S(=O)(=O)c3cn(C)cn3)C[C@@H]2C2OCCCO2)ccc1F` [Example 923, (3R,4S)-4-(1,3-dioxan-2-yl)-N-(4-fluoro-3-methylphenyl)-1-[(1-methyl-1H-imidazol-4-yl)sulfonyl]pyrrolidin-3-amine] the Ki was at most 100 nM.

Same assay, conditions: radioligand binding to human GlyT1c transporter-expressing CHO cell membranes
For “Trans-N-[4-chloro-3-(trifluoromethoxy)phenyl]-1-[(1-methyl-1H-imidazol-4-yl)sulfonyl]-4-[(3S)-tetrahydro-2H-pyran-3-yl]pyrrolidin-3-amine [Example 793]”, the Ki was at most 10000 nM.
In the case of “Trans-N-[4-chloro-3-(trifluoromethyl)phenyl]-1-[(1-methyl-1H-imidazol-4-yl)sulfonyl]-4-[(3S)-tetrahydro-2H-pyran-3-yl]pyrrolidin-3-amine [Example 792]”, the Ki is reported as at most 10000 nM.
“(3R,4S)-N-[2-chloro-4-(trifluoromethyl)benzyl]-1-[(1-methyl-1H-imidazol-4-yl)sulfonyl]-4-phenylpyrrolidin-3-amine [Example 394]” gave a Ki of at most 10 nM.
